Laboratory results as given in paper PMC4994520 (European journal of medicinal chemistry, 2012).

Target: human PDE5 (Homo sapiens, UniProt O76074)
Experiment: PDE5 inhibition, IMAP fluorescence polarization phosphodiesterase assay
Assay type: biochemical
Details: for inhibition at 10 µM: read-out: % PDE5 inhibition at 10 μM

Row | SMILES | IC50 [nM] | inhibition at 10 µM [%] | % PDE5 inhibition at 10 μM (10 μM, triplicate) [%]
1 | CCC(C)N1C(=O)[C@@H]2Cc3c([nH]c4ccccc34)[C@@H](c3ccc(Br)cc3)N2C1=O (stereo partly drawn) [Compound 16, (5R,11aS)-5-(4-Bromophenyl)-2-sec-butyl-5,6,11,11a-tetrahydro-1H-imidazo[1′,5′:1,6]pyrido[3,4-b]indole-1,3(2H)-dione] | 150 | 92 | –
2 | CC(C)(C)N1C(=O)[C@H]2Cc3c([nH]c4ccccc34)[C@@H](c3ccc(Br)cc3)N2C1=O [Compound 17, (5R,11aR)-5-(4-Bromophenyl)-2-tert-butyl-5,6,11,11a-tetrahydro-1H-imidazo[1′,5′:1,6]pyrido[3,4-b]indole-1,3(2H)-dione] | 270 | 91 | –
3 | CC(C)(C)N1C(=O)[C@H]2Cc3c([nH]c4ccccc34)[C@H](c3ccc(Br)cc3)N2C1=O [Compound 18, (5S,11aR)-5-(4-Bromophenyl)-2-tert-butyl-5,6,11,11a-tetrahydro-1H-imidazo[1′,5′:1,6]pyrido[3,4-b]indole-1,3(2H)-dione] | 2200 | 78 | –
4 | CC(C)(C)N1C(=O)[C@@H]2Cc3c([nH]c4ccccc34)[C@H](c3ccc(Br)cc3)N2C1=O [Compound 19, (5S,11aS)-5-(4-Bromophenyl)-2-tert-butyl-5-(4-bromophenyl)-5,6,11,11a-tetrahydro-1H-imidazo[1′,5′:1,6]pyrido[3,4-b]indole-1,3(2H)-dione] | – | – | 38
5 | CC(C)(C)N1C(=O)[C@@H]2Cc3c([nH]c4ccccc34)[C@@H](c3ccc(Br)cc3)N2C1=O [Compound 20, (5R,11aS)-5-(4-Bromophenyl)-2-tert-butyl-5,6,11,11a-tetrahydro-1H-imidazo[1′,5′:1,6]pyrido[3,4-b]indole-1,3(2H)-dione] | 270 | 94 | –
6 | CN1CC(=O)N2[C@@H](c3ccc(Br)cc3)c3[nH]c4ccccc4c3C[C@H]2C1=O [Compound 27, (6S,12aS)-6-(4-Bromophenyl)-2-methyl-2,3,6,7,12,12a-hexahydropyrazino [1′,2′:1,6]pyrido[3,4-b]indole-1,4-dione] | 1900 | 87 | –
7 | CCN1CC(=O)N2[C@@H](c3ccc(Br)cc3)c3[nH]c4ccccc4c3C[C@H]2C1=O [Compound 31, (6S,12aS)-2-Ethyl-6-(4-bromophenyl)-2,3,6,7,12,12a-hexahydropyrazino [1′,2′:1,6]pyrido[3,4-b]indole-1,4-dione] | 220 | 83 | –
8 | CCN1CC(=O)N2[C@H](c3ccc(Br)cc3)c3[nH]c4ccccc4c3C[C@H]2C1=O [Compound 32, (6R,12aS)-2-Ethyl-6-(4-bromophenyl)-2,3,6,7,12,12a-hexahydropyrazino [1′,2′:1,6]pyrido[3,4-b]indole-1,4-dione] | < 10 | 98.7 | –
9 | CCCCN1CC(=O)N2[C@@H](c3ccc(Br)cc3)c3[nH]c4ccccc4c3C[C@H]2C1=O [Compound 35, (6S,12aS)-2-Butyl-6-(4-bromophenyl)-2,3,6,7,12,12a-hexahydropyrazino[1′,2′:1,6]pyrido[3,4-b]indole-1,4-dione] | 5900 | 80 | –
10 | CC(C)(C)N1CC(=O)N2[C@H](c3ccc(Br)cc3)c3[nH]c4ccccc4c3C[C@@H]2C1=O [Compound 37, (6R,12aR)-6-(4-Bromophenyl)-2-tert-butyl-2,3,6,7,12,12a-hexahydropyrazino [1′,2′:1,6]pyrido[3,4-b]indole-1,4-dione] | > 10000 | 30 | –
11 | CC(C)(C)N1CC(=O)N2[C@H](c3ccc(Br)cc3)c3[nH]c4ccccc4c3C[C@H]2C1=O [Compound 40, (6R,12aS)-6-(4-Bromophenyl)-2-tert-butyl-2,3,6,7,12,12a-hexahydropyrazino[1′,2′:1,6]pyrido[3,4-b]indole-1,4-dione] | – | 21 | –

The remaining lines, values ahead:

Row | IC50 [nM] | inhibition at 10 µM [%] | % PDE5 inhibition at 10 μM (10 μM, triplicate) [%] | SMILES
12 | 3300 | 72 | – | CCC(C)N1C(=O)[C@@H]2Cc3c([nH]c4ccccc34)[C@H](c3ccc(Br)cc3)N2C1=O (stereo partly drawn) [Compound 15, (5S,11aS)-5-(4-Bromophenyl)-2-sec-butyl-5,6,11,11a-tetrahydro-1H-imidazo[1′,5′:1,6]pyrido[3,4-b]indole-1,3(2H)-dione]
13 | > 10000 | 25 | – | COC(=O)[C@H]1Cc2c([nH]c3ccccc23)[C@@H](c2ccc(Br)cc2)N1C(=O)CCl [Compound 21, Methyl (1R,3R)-1-(4-bromophenyl)-2-(chloroacetyl)-2,3,4,9-tetrahydro-1H-β-carboline-3-carboxylate]
14 | > 10000 | 19 | – | COC(=O)[C@@H]1Cc2c([nH]c3ccccc23)[C@H](c2ccc(Br)cc2)N1C(=O)CCl [Compound 23, Methyl (1S,3S)-1-(4-bromophenyl)-2-(2-chloroacetyl)-2,3,4,9-tetrahydro-1H-β-carboline-3-carboxylate]
15 | 6600 | 94 | – | CN1CC(=O)N2[C@@H](c3ccc(Br)cc3)c3[nH]c4ccccc4c3C[C@@H]2C1=O [Compound 26, (6S,12aR)-6-(4-Bromophenyl)-2-methyl-2,3,6,7,12,12a-hexahydropyrazino [1′,2′:1,6]pyrido[3,4-b]indole-1,4-dione]
16 | 1900 | 97.9 | – | CCN1CC(=O)N2[C@@H](c3ccc(Br)cc3)c3[nH]c4ccccc4c3C[C@@H]2C1=O [Compound 30, (6S,12aR)-2-Ethyl-6-(4-bromophenyl)-2,3,6,7,12,12a-hexahydropyrazino [1′,2′:1,6]pyrido[3,4-b]indole-1,4-dione]
17 | 6600 | 81.5 | – | CCCCN1CC(=O)N2[C@@H](c3ccc(Br)cc3)c3[nH]c4ccccc4c3C[C@@H]2C1=O [Compound 34, (6S,12aR)-2-Butyl-6-(4-bromophenyl)-2,3,6,7,12,12a-hexahydropyrazino [1′,2′:1,6]pyrido[3,4-b]indole-1,4-dione]
18 | – | 92 | – | CCCCN1CC(=O)N2[C@H](c3ccc(Br)cc3)c3[nH]c4ccccc4c3C[C@H]2C1=O [Compound 36, (6R,12aS)-2-Butyl-6-(4-bromophenyl)-2,3,6,7,12,12a-hexahydropyrazino [1′,2′:1,6]pyrido[3,4-b]indole-1,4-dione]
19 | – | 27 | – | CC(C)(C)N1CC(=O)N2[C@@H](c3ccc(Br)cc3)c3[nH]c4ccccc4c3C[C@@H]2C1=O [Compound 38, (6S,12aR)-6-(4-Bromophenyl)-2-tert-butyl-2,3,6,7,12,12a-hexahydropyrazino [1′,2′:1,6]pyrido[3,4-b]indole-1,4-dione]
20 | – | 12 | – | CC(C)(C)N1CC(=O)N2[C@@H](c3ccc(Br)cc3)c3[nH]c4ccccc4c3C[C@H]2C1=O [Compound 39, (6S,12aS)-6-(4-Bromophenyl)-2-tert-butyl-2,3,6,7,12,12a-hexahydropyrazino[1′,2′:1,6]pyrido[3,4-b]indole-1,4-dione]
